# Where two headings read alike, the source gives them in different places.
# Legend:
# PDE4B2 = biological target: T1, PDE4B2 (Homo sapiens, UniProt Q07343); experiment: In vitro PDE4B2 enzyme inhibitory activity (AMP-Glo); format: biochemical
# T1 construct: purchased BPS bioscience
# Method: 2.1.1 Preparing stock solutions of compounds in DMSO: Compound powders were dissolved in 100% DMSO to produce 10 mM stock solutions, and oscillated in a shaker until the compounds were completely dissolved.
# 2.1.3 Preparing working stock solutions: a) A solution of Roflumilast (reference compound) in DMSO was diluted to 60 μM, and then serially diluted 4-fold into 10 concentration gradients. B) The solutions of the test compounds in DMSO were diluted to 200 μM, and then serially diluted 3-fold. C) A 200× positive control (60 μM Roflumilast) and a 200× vehicle control (100% DMSO) were prepared. D) The assay plate was centrifuged at 1000 rpm for 1 minute.
# (1) 20 nL of compound dilution solutions were transferred with Echo 550 into each well of the assay plate.
# (2) The assay plate was sealed and centrifuged at 1000 rpm for 1 minute.
# (3) 2×PDE4B2/PDE4D2 was prepared in an ice-cold PDE assay buffer.
# (4) 2 μL of 2×PDE4B2/PDE4D2 was added to each well of the assay plate prepared in step 2.
# (5) The assay plate was sealed and allowed to equilibrate at room temperature for 10 minutes.
# (6) 2× Cyclic-3′,5′-AMP was prepared in a PDE assay buffer.
# 7) 2 μL of 2× Cyclic-3′,5′-AMP (prepared in step 6) was added to each well of the assay plate (prepared in step 5) to initiate the reaction. The plate was incubated at room temperature for 60 minutes.
# 8) 4 μL AMP-Glo Reagent I was added, and the plate was incubated at room temperature for 60 minutes.
# 9) 8 μL AMP detection reagent was added. The plate was incubated at room temperature for 60 minutes.
# 10) The RLU signal was read on an Envision 2105 plate reader.
# [1] = Pharmacokinetic assay in mice, plasma concentration by LC-MS/MS; format: in vivo, CD-1 male mice; conditions: male, CD-1, mouse
# Method: Assay 2: Pharmacokinetic Assay by Using LC-MS/MS to Determine the Compound Concentration in Mice
# Assay principle: LC-MS/MS was used to determine the drug concentration of the target drug in plasma at different times, and to plot the pharmacokinetic curve of the target compound in vivo.
# An accurately weighed amount of the test compound was dissolved in 5% DMSO (INNOCHEM, INBZZHCAE) by vortex mixing. Subsequently, 10% Solutol (BASF, 75389809T0) was added and homogenized by vortexing.
# Finally, 85% saline (Fengyuan, 220505102) was incorporated with vortex mixing to achieve dosing formulations at 0.4 mg/mL and 1.0 mg/mL.
# The mice were sourced from CD-1 male mice (JH Laboratory Animal Co. LTD), with three mice for each group.
# The mice were administered with 2 mg/kg intravenously (IV) or 10 mg/kg by oral gavage (PO). The blood samples were collected at 5 min (IV group only), 15 min, 30 min, 1 h, 2 h, 4h, 8h, and 24h (PO group only) after administration.
# Approximately 30 μL blood samples were collected at each time point and placed into anticoagulant tubes containing EDTA-K2 anticoagulant. Plasma was obtained by centrifugation within 30 minutes. Whole blood samples before centrifugation were placed on wet ice. For each test compound, 42 plasma samples were collected.
# All collected plasma samples were stored on dry ice or in a freezer until analysis. The drug concentration was determined using a Triple-quadrupole MS system (SCIEX), including standard curve and quality control preparation, and sample preparation.
# Standard curve and quality control preparation: a working solution was prepared by ACN:H2O (1:1) dilution, and 3 μL of the above standard curve and quality control working solution was added to 57 μL of blank plasma.
# Sample preparation: 7 μL of plasma sample was added to 70 μL of internal standard solution (Propranolol, Tolbutamide, Glipizide, Osalmid, each 200 ng/mL in ACN). The mixture was mixed for 5 minutes and centrifuged at 4000 rpm for 10 minutes. 50 μL of supernatant was taken and transferred to a new plate containing 200 μL ultrapure water for sample analysis.
# Chromatographic conditions were optimized for each sample, regarding mobile phase composition, elution gradient conditions, flow rate, retention time, etc. The chromatographic column was Waters Acquity UPLC HSS T3 1.8 μm, 2.1×50 mm. The injection volume was 2 μL.
# An electrospray ionization source was used in mass spectrometry. In the positive ion detection mode, the multi-channel reaction monitoring (MRM) mode was selected for secondary mass spectrometry analysis.
# Based on the drug concentration-time data, pharmacokinetic parameters were calculated using WinNonlin 8.2 software according to a non-compartmental model, including peak concentration Cmax, peak time Tmax, area under the drug-time curve AUC, and elimination half-life t1/2. The AUC was calculated using the linear trapezoidal method (linear up log down).
# [2] = PDE4B2 enzyme inhibition, read-out: PDE4B2 IC50
# [3] = read-out: IC50 values of PDE4B2 enzyme inhibition
# T1 sequence (Q07343 1-564 isoform Q07343-2): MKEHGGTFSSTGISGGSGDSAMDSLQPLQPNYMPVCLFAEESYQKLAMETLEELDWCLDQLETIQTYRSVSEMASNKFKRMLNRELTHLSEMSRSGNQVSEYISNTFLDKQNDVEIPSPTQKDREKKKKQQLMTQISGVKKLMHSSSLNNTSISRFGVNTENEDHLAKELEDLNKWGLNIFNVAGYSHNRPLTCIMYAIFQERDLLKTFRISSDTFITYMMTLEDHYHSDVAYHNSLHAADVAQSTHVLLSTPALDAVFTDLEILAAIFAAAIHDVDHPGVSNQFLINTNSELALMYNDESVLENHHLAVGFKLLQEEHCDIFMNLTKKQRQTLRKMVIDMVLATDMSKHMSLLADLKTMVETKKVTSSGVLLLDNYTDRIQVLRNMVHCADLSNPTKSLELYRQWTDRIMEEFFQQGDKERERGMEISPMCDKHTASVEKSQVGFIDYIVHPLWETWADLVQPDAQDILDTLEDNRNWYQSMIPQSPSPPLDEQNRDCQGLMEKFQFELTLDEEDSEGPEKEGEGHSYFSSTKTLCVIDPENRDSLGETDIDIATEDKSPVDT
Compound,IC50 (PDE4B2; [2]),"AUC(0-inf) ([1]; IV, 2 mg/kg)","clearance ([1]; IV, 2 mg/kg)","half-life ([1]; IV, 2 mg/kg)","AUC(0-inf) ([1]; PO, 10 mg/kg)","Cmax ([1]; PO, 10 mg/kg)","Tmax ([1]; PO, 10 mg/kg)",IC50 (PDE4B2; [3])
"[O-][S+]1CCc2nc(N3Cc4ccc(Cl)cc4C3)nc(NC3(CO)CCC3)c21 (racemic) [Compound 25, (R/S)-2-(5-chloroisoindolin-2-yl)-4-((1-(hydroxymethyl)cyclobutyl)amino)-6,7-dihydrothieno[3,2-d]pyrimidine 5-oxide]",2 to 5 nM,17600 ng·h/mL,2.4 mL/min/kg,5.01 h,23100 ng·h/mL,5950 ng/mL,1.33 h,
"COc1ccc(C2(OC)CN(c3nc4c(c(NC5CCOCC5)n3)[S+]([O-])CC4)C2)cc1 (racemic) [Compound 108, (R/S)-2-(3-methoxy-3-(4-methoxyphenyl)azetidin-1-yl)-4-((tetrahydro-2H-pyran-4-yl)amino)-6,7-dihydrothieno[3,2-d]pyrimidine 5-oxide]",≤ 2 nM,,,,,,,< 1 nM
"COC1(c2ccc(N(C)C)cc2)CN(c2nc3c(c(NC4(CO)CCC4)n2)[S+]([O-])CC3)C1 (racemic) [Compound 109, (R/S)-2-(3-(4-(dimethylamino)phenyl)-3-methoxyazetidin-1-yl)-4-((1-(hydroxymethyl)cyclobutyl)amino)-6,7-dihydrothieno[3,2-d]pyrimidine 5-oxide]",≤ 2 nM,,,,,,,< 1 nM
"CNc1ccc(C2(OC)CN(c3nc4c(c(NC5(CO)CCC5)n3)[S+]([O-])CC4)C2)cc1 (racemic) [Compound 112, (R/S)-4-((1-(hydroxymethyl)cyclobutyl)amino)-2-(3-methoxy-3-(4-(methylamino)phenyl)azetidin-1-yl)-6,7-dihydrothieno[3,2-d]pyrimidine 5-oxide]",≤ 2 nM,,,,,,,
"[O-][S+]1CCc2nc(N3CCC(c4ncc(Cl)cn4)CC3)nc(NC3(CO)CCC3)c21 (stereo not shown) [Control 1, reference compound]",20 to 50 nM,2900 ng·h/mL,11.8 mL/min/kg,1.57 h,12100 ng·h/mL,2250 ng/mL,0.5 h,

# — US20260242393A1, “Preparation Method for and Use of Dihydrothienopyrimidine Derivative” (Innovstone Therapeutics Limited, priority 2023, published 2026)
